Assay [1] deals with Estrogen receptor (Bos taurus) (UniProt Q9XSB5+P49884). The assay is described as follows: Relative binding affinity for calf uterine estrogen receptor by 17-beta-[3H]-estradiol competition. The class given is protein assay.
Assay [2] deals with T1, Estrogen receptor (Mus musculus) (UniProt O08537+P19785). The assay is described as follows: Estrogenic activity in uterotrophic assay in mice at 100 ug/day. The class given is functional.
The target in assay [3] is T1, Estrogen receptor (Mus musculus). The assay is described as follows: Estrogenic activity in uterotrophic assay in mice at 1000 ug/day. Format: functional.
For assay [4] the target is unchanged. The assay is described as follows: Estrogenic activity in uterotrophic assay in mice at 0 ug/day. The class given is functional.
For assay [5] the target is unchanged. The assay is described as follows: Estrogenic activity in uterotrophic assay in mice at 0.4 ug/day with estrone. Format: functional.
Assay [6] has the same target. The assay is described as follows: Estrogenic activity in uterotrophic assay in mice at 1 ug/day. Format: functional.
Assay [7] shares this target. The assay is described as follows: Estrogenic activity in uterotrophic assay in mice at 10 ug/day. Format: functional.
Assay [8] has the same target. The assay is described as follows: Estrogenic activity in uterotrophic assay in mice at 2 ug/day. Format: functional.
The target is the same in assay [9]. The assay is described as follows: Estrogenic activity in uterotrophic assay in mice at 250 ug/day. The class given is functional.
Assay [10] shares this target. The assay is described as follows: Estrogenic activity in uterotrophic assay in mice at 50 ug/day. The class given is functional.
Assay [11] has the same target. The assay is described as follows: Anti-uterotrophic activity in mice at 100 ug/day. The class given is functional.
The target is the same in assay [12]. The assay is described as follows: Anti-uterotrophic activity in mice at 250 ug/day. The class given is functional.
Assay [13] has the same target. The assay is described as follows: Anti-uterotrophic activity in mice at 5 ug/day. The class given is functional.
Assay [14] has the same target. The assay is described as follows: Inhibition of anti-uterotrophic activity in mice at 100 ug/day (%inhibition=100-(E S,T-EV)x100). The class given is functional.
Assay [15] has the same target. The assay is described as follows: Inhibition of anti-uterotrophic activity in mice at 25 ug/day (%inhibition=100-(E S,T-EV)x100). Format: functional.
The target is the same in assay [16]. The assay is described as follows: Inhibition of anti-uterotrophic activity in mice at 250 ug/day (%inhibition=100-(E S,T-EV)x100). The class given is functional.
Assay [17] shares this target. The assay is described as follows: Inhibition of anti-uterotrophic activity in mice at 5 ug/day (%inhibition=100-(E S,T-EV)x100). Format: functional.
The target is the same in assay [18]. The assay is described as follows: Anti-uterotrophic activity in mice at 25 ug/day.
For assay [19] the target is unchanged. The assay is described as follows: Estrogenic activity in uterotrophic assay in mice at 500 ug/day.
Assay [20] has the same target. The assay is described as follows: Anti-uterotrophic activity in mice at 0 ug/day. The class given is functional.

These results are taken from ChEMBL document CHEMBL1122266, “Ring-substituted 1,2-dialkylated 1,2-bis(hydroxyphenyl)ethanes. 1. Synthesis and estrogen receptor binding affinity of 2,2'- and 3,3'-disubstituted hexestrols” (J Med Chem, 1983).

Where “and” joins values, the source holds several entries; their conditions need not be identical. Equal values may be shown once.

T1 sequence (O08537 whole entry, looked up): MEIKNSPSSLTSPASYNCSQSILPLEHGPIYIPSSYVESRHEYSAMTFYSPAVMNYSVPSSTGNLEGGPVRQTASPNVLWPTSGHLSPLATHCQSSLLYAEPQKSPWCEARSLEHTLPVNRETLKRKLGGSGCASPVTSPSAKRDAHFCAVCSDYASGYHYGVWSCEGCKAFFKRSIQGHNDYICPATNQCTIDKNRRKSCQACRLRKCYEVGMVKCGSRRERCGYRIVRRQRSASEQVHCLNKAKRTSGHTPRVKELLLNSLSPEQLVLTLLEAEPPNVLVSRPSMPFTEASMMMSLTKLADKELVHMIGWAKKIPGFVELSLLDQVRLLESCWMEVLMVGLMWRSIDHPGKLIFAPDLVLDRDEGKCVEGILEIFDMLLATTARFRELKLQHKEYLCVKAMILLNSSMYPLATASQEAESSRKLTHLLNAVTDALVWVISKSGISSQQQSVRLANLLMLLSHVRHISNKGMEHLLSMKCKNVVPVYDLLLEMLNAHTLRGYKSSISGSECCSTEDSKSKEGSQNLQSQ
T1 sequence (P19785 whole entry, looked up): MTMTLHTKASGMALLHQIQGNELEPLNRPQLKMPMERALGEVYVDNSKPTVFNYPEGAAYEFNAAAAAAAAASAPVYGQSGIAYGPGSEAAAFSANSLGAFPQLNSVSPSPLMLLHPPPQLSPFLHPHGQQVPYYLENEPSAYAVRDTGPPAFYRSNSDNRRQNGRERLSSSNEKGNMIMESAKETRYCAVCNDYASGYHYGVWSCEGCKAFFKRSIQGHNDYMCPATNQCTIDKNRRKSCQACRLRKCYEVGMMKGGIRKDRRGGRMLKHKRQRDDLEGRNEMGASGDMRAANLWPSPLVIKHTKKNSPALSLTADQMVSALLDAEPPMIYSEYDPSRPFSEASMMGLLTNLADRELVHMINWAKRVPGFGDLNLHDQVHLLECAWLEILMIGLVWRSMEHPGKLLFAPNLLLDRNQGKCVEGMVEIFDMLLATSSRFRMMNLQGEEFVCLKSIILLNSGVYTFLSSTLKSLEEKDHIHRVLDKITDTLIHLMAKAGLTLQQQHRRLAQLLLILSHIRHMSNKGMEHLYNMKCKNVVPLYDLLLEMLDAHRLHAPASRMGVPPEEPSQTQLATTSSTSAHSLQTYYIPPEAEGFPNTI

Take `CCC(c1ccc(O)c(C)c1)C(CC)c1ccc(O)c(C)c1` (stereo not given): the relative binding affinity (RBA) in assay [1] was determined as 8.1. In addition, the Effect came to 33.8 mg 100g-1 in assay [2]; 34 mg 100g-1 in assay [3]; 10 mg 100g-1 in assay [4]; 44.9 mg 100g-1 in assay [5]; 48.7 mg 100g-1 in [6]; 40 mg 100g-1 in assay [7].
As for `CCC(c1ccc(O)c(Cl)c1)C(CC)c1ccc(O)c(Cl)c1` (stereo not given), the relative binding affinity (RBA) in assay [1] came to 1.6.
Same read-out and setting: with `CCC(c1ccc(O)c(COC)c1)C(CC)c1ccc(O)c(COC)c1` (stereo not given) the figure was 0.55.
In [1], `CCC(c1ccc(O)c(O)c1)C(CC)c1ccc(O)c(O)c1` (stereo not given) gave a relative binding affinity (RBA) of 20. The Effect in assay [4] was found to be 15.4 mg 100g-1; in [5], 54.3 mg 100g-1; in assay [7] it was 34.7 mg 100g-1; in [8] it was 24.6 mg 100g-1; in [9] it was 50.1 mg 100g-1; in assay [10], 39.1 mg 100g-1. The Effect in assay [11] worked out at 39.2 mg 100g-1; in assay [12], 43.6 mg 100g-1; in assay [13], 24.1 mg 100g-1; in [18], 37 mg 100g-1; in [19] it was 49.8 mg 100g-1. The inhibition in assay [14] stood at 13%; in assay [15] it was 20%; in assay [16], 0%; in assay [17], 59%.
With `CCC(c1ccc(O)cc1O)C(CC)c1ccc(O)cc1O` (stereo not given), the relative binding affinity (RBA) in [1] came to 32. For the same compound, the Effect in assay [4] came to 16.4 mg 100g-1; in assay [5], 51.4 mg 100g-1; in assay [6] it was 53.6 mg 100g-1; in [7] it was 41.6 mg 100g-1.
In [1], `CCOCc1cc(C(CC)C(CC)c2ccc(O)c(COCC)c2)ccc1O` (stereo not given) came in with a relative binding affinity (RBA) of 0.18.
Regarding `CCC(c1ccc(O)cc1Br)C(CC)c1ccc(O)cc1Br` (stereo not given), the relative binding affinity (RBA) in [1] came to 1.8.
On to `CCC(c1ccc(O)c(I)c1)C(CC)c1ccc(O)c(I)c1` (stereo not given), for which the relative binding affinity (RBA) in assay [1] amounted to 0.17.
As for `CCC(c1ccc(O)c([N+](=O)[O-])c1)C(CC)c1ccc(O)c([N+](=O)[O-])c1` (stereo not given), in assay [1], the relative binding affinity (RBA) is 0.14.
`CCC(c1ccc(O)c(F)c1)C(CC)c1ccc(O)c(F)c1` (stereo not given) displayed a relative binding affinity (RBA) in assay [1] of 16. Moreover, the Effect came out at 40.4 mg 100g-1 in assay [2]; 38.8 mg 100g-1 in [3]; 10 mg 100g-1 in [4]; 44.9 mg 100g-1 in assay [5]; 50.7 mg 100g-1 in [6]; 43.4 mg 100g-1 in [7].
The compound `CCC(c1ccc(O)cc1C)C(CC)c1ccc(O)cc1C` (stereo not given) came in with a relative binding affinity (RBA) in assay [1] of 8.5. Moreover, the Effect worked out at 38.4 mg 100g-1 in assay [2]; 32.6 mg 100g-1 in assay [3]; 16.9 mg 100g-1 in assay [4]; 43.9 mg 100g-1 in [5]; 46.3 mg 100g-1 in [6]; 36.6 mg 100g-1 in [7].
For the compound `CCc1cc(C(CC)C(CC)c2ccc(O)c(CC)c2)ccc1O` (stereo not given), the relative binding affinity (RBA) in [1] worked out at 1.2.
The compound `CCC(c1ccc(O)cc1Cl)C(CC)c1ccc(O)cc1Cl` (stereo not given) gave a relative binding affinity (RBA) in assay [1] of 2.2.
`CCC(c1ccc(O)c(Br)c1)C(CC)c1ccc(O)c(Br)c1` (stereo not given) yielded a relative binding affinity (RBA) in assay [1] of 0.25.
Compound `CCc1cc(O)ccc1C(CC)C(CC)c1ccc(O)cc1CC` (stereo not given) displayed a relative binding affinity (RBA) in assay [1] of 3.7.
In assay [1], `CCC(c1ccc(O)c(CN(C)C)c1)C(CC)c1ccc(O)c(CN(C)C)c1` (stereo not given) yielded a relative binding affinity (RBA) of 0.04.
In turn, `CCC(c1ccc(O)c(N)c1)C(CC)c1ccc(O)c(N)c1` (stereo not given) gave a relative binding affinity (RBA) in [1] of 5.6. For the same compound, the Effect in assay [2] came out at 44.7 mg/100 g; in [3] it was 45.6 mg 100g-1; in assay [4], 16.9 mg 100g-1; in assay [5], 50.4 mg/100 g; in assay [6], 23.3 mg 100g-1; in [7], 24.3 mg 100g-1. Besides, the Effect in assay [20] is 50.4 mg 100g-1 and 19.4 mg 100g-1; in [18], 34.6 mg 100g-1. Also, the inhibition was 0% in assay [15] and 78% in assay [17].
On to `CCC(c1ccc(O)c(CO)c1)C(CC)c1ccc(O)c(CO)c1` (stereo not given), for which the relative binding affinity (RBA) in assay [1] amounted to 0.71.
On the same count and under the same terms, with `CCC(c1ccc(O)c(N(C)C)c1)C(CC)c1ccc(O)c(N(C)C)c1` (stereo not given) the figure was under 0.01; with `CC[C@H](c1ccc(O)cc1)[C@@H](CC)c1ccc(O)cc1`, 27.
In the case of `CCC(c1ccc(O)c(C(C)=O)c1)C(CC)c1ccc(O)c(C(C)=O)c1` (stereo not given), the relative binding affinity (RBA) in assay [1] is under 0.01.
`CCC(c1ccc(O)cc1F)C(CC)c1ccc(O)cc1F` (stereo not given) registered a relative binding affinity (RBA) in [1] of 6.5. Moreover, the Effect is 34.3 mg 100g-1 in assay [2]; 30.5 mg 100g-1 in assay [3]; 16.9 mg 100g-1 in assay [4]; 43.9 mg 100g-1 in [5]; 47.6 mg 100g-1 in [6]; 39 mg 100g-1 in assay [7].
